Source: patent US20150252048A1, “SUBSTITUTED N-(3-PYRIMIDIN-4-YL)PHENYL)ACRYLAMIDE ANALOGS AS TYROSINE RECEPTOR KINASE BTK INHIBITORS” (UNIVERSITY OF UTAH RESEARCH FOUNDATION, priority 2012, published 2015)
Read-outs that look alike come from different tables or passages of the source.

Assays:
[1] = Caco-2 bidirectional permeability assay; format: in vitro ADME; details: human
Experimental: (§1) Cell membrane permeability is an important drug characteristic. Typically, a drug candidate is test in a Caco-2 cell transmembrane permeability assay. Compound 3 was tested in a bidirectional permeability assay, and the results are shown in Table V. The data are consistent with the representative compound having good cellular membrane permeability, and the efflux ratio is consistent with active efflux of the drug from cell. The study was conducted using standard techniques known in the art.

Caco-2 cell = experiment: Caco-2 bidirectional permeability assay; format: in vitro ADME; details: Caco-2
Experimental: as §1

Plasma stability assay = format: in vitro ADME; set-up: half-life: dose or concentration left out as unconfirmed
Experimental: The representative compound, compound 3, was also assessed in a plasma stability assay. Briefly, the compound was present at a concentration […] in plasma from three mammalian species (human, rat, and mouse). The concentration of intact drug (i.e. unmodified drug) at the indicated time points was determined using a LC-MS/MS assay. The data are consistent with good drug stability under the conditions tested.

[2] = Glutathione (GSH) trapping assay; format: in vitro ADME; details: peak area vs intact compound 3 at time zero, 1 mg/mL human liver microsomal protein
Source text: Drug metabolism in vivo can lead to reactive intermediates that form covalent adducts with cellular materials. Such covalent binding of reactive metabolites is potentially involved in severe adverse drug reactions. However, the covalent binding assay is of low throughput and costly, a qualitative trapping assay measuring trapping of drug glutathione conjugates in human liver microsomes can provide information on the propensity of a drug candidate to be involved in covalent binding reactions. A glutathione (GSH) trapping assay was carried out on representative disclosed compound, compound 3, and the results are shown in Table VIII. […] The assay was carried out with 1 mg total human liver microsomal protein per milliliter.

ERBB4/HER4 = ERBB4/HER4 (Homo sapiens, UniProt Q15303); experiment: Specific kinase IC50 assay; format: biochemical; details: 1 μM ATP, 10-dose, duplicate
Experimental: (§2) The assays were carried out in the presence of 1 μM ATP and were conducted in a 10-dose format in duplicate with three-fold serial dilutions starting at 10 μM.

TEC = biological target: T1, TEC (Homo sapiens, UniProt P42680); experiment: Specific kinase IC50 assay; format: biochemical; details: 1 μM ATP, 10-dose, duplicate
T1 sequence (P42680 1-631): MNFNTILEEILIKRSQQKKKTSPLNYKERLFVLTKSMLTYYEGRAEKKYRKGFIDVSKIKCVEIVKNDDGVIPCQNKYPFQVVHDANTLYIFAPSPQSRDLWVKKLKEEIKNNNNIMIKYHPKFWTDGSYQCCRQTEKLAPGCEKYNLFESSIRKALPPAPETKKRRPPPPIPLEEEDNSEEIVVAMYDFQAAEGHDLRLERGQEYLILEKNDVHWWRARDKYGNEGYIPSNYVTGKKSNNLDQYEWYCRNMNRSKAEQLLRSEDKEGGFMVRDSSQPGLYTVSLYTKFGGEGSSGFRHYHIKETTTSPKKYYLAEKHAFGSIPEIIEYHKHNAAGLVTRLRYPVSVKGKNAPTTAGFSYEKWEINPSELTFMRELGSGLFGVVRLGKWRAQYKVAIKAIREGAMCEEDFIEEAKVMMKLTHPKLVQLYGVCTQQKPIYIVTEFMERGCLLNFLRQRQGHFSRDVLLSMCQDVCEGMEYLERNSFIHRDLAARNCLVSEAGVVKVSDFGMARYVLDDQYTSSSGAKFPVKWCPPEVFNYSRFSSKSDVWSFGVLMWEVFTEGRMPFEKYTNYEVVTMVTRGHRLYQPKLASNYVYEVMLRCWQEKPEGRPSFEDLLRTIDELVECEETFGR
Experimental: as §2

HERG channel = biological target: T2, HERG channel (Homo sapiens, UniProt Q12809); experiment: Predictor hERG Fluorescence Polarization Assay; format: binding; details: membrane preparation with overexpressed HERG channels, 10-point, duplicate
T2 construct: purchased Invitrogen; host or cells: membrane preparation with overexpressed HERG channels
Experimental: The activity of a representative disclosed compound, compound 3 (N-(3-(6-((3-morpholinophenyl)amino)-1H-pyrazolo[3,4-d]pyrimidin-4-yl)phenyl)acrylamide), was evaluated in a HERG channel assay. Briefly, the compounds were assessed using the Invitrogen Predictor™ hERG Fluorescence Polarization Assay with excitation at 530 nm and emission at 580 nm using a membrane preparation with overexpressed HERG channels. The compound was tested in a 10-point dose response curves in duplicate and using E-4031 (N-[4-[[1-[2-(6-Methyl-2-pyridinyl)ethyl]-4-piperidinyl]carbonyl]phenyl]methanesulfonamide dihydrochloride), a known HERG channel inhibitor, as an assay positive control. The data are shown in FIG. 6, and the figure showns the average inhibition versus the compound.

Pharmacokinetics in mice = format: in vivo; details: mouse, plasma
Experimental: The pharmacokinetic behavior of a representative disclosed compound, compound 3 (N-(3-(6-((3-morpholinophenyl)amino)-1H-pyrazolo[3,4-d]pyrimidin-4-yl)phenyl)acrylamide), which corresponds to compound 3 in Table I, was evaluated in mice. As used herein, “test compound” refers to compound 3. The study was carried out using three animals per dosing group. Animals were dosed as follows: a) Group 1 were administered 5 mg/kg of test compound by i.v. administration; b) Group 2 were dosed at 10 mg/kg by oral gavage using the base form of the test compound; and c) Group 3 were dosed at 10 mg/kg by oral gavage using a HCl salt of the test compound. Plasma concentration of the test compound was determined on samples take at the following time points: 0.08, 0.25, 0.50, 1, 2, 4, 8, and 24 hrs. Individual values were within 25% of the mean.

[3] = po, 10 mg/kg, p.o. (HCl salt), 10 mg/kg oral gavage
[4] = po, 10 mg/kg, p.o. (base form), 10 mg/kg oral gavage

Chain of ERBB4/HER4 (Q15303 26-1308): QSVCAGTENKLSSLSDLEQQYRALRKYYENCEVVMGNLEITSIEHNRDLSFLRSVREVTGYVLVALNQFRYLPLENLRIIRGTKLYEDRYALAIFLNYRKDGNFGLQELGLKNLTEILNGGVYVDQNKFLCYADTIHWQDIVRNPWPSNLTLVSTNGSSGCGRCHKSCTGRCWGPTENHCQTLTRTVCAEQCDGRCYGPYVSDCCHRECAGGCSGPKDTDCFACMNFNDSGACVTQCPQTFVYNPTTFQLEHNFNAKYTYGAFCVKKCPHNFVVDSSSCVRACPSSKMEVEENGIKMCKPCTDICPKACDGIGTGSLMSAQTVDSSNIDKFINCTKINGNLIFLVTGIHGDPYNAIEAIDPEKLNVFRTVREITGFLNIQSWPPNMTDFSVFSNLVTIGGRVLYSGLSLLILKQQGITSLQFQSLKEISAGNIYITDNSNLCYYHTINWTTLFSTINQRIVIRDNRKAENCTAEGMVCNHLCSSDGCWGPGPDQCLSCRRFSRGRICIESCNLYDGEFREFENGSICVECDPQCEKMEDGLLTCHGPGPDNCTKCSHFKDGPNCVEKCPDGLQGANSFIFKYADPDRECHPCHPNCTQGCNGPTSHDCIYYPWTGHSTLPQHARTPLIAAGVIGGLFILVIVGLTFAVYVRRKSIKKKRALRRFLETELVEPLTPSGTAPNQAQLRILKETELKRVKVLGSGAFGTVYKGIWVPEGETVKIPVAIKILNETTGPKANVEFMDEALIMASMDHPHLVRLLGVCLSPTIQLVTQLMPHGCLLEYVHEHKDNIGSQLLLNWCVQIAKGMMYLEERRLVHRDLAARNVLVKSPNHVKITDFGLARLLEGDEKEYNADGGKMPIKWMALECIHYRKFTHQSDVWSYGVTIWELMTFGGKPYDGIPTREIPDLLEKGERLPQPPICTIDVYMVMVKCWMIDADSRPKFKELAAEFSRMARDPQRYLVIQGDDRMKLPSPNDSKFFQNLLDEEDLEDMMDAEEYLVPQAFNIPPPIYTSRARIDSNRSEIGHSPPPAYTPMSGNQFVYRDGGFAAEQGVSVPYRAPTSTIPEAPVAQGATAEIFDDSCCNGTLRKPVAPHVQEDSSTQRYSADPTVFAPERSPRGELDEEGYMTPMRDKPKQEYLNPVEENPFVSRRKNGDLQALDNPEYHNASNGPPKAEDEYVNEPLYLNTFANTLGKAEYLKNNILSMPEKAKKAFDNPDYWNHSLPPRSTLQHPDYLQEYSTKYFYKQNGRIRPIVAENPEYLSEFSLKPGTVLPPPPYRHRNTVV
T2 sequence (Q12809 whole entry): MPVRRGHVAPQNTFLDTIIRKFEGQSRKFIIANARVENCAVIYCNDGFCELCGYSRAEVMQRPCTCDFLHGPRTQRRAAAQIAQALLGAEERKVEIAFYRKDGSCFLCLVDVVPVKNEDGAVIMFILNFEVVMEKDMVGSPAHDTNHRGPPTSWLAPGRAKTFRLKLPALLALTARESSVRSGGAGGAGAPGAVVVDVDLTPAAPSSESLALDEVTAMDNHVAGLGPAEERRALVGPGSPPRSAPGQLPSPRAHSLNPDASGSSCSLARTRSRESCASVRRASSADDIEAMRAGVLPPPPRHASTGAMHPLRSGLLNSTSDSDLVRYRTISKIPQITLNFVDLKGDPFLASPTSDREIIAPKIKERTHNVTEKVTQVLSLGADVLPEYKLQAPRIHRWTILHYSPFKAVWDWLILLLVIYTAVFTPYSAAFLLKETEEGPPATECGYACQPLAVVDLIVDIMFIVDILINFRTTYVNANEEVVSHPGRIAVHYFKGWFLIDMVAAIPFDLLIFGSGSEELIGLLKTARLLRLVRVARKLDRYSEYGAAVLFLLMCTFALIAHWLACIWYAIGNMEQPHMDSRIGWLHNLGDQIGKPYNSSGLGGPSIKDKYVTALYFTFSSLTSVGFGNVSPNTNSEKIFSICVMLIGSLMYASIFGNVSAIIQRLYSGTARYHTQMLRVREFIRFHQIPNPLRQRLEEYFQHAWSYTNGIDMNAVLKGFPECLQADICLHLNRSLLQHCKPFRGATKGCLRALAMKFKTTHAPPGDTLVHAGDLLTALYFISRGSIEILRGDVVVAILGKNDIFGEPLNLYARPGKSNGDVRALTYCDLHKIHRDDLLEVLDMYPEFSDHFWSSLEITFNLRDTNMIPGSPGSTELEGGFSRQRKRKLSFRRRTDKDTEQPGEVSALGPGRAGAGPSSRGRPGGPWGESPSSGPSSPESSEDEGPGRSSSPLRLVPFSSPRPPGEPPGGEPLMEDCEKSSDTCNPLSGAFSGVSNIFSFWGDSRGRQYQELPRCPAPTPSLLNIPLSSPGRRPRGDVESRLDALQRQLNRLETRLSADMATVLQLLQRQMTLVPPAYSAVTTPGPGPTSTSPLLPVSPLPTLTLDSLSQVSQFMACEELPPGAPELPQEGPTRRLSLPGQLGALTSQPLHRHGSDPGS

efflux ratio ([1]; Caco-2): 6
recovery ([1]; Caco-2, Caco-2, A-B, read-out: % Recovery A-B): 41%
recovery ([1]; Caco-2, Caco-2, B-A, read-out: % Recovery B-A): 84%
Papp A→B ([1]; Caco-2, A-B): 5.81 ×10⁻⁶ cm/s
Papp B→A ([1]; Caco-2, B-A): 34.9 ×10⁻⁶ cm/s
Permeability Classification (Caco-2 cell): High
Significant Efflux (Caco-2 cell): Yes
half-life (Plasma stability assay; human plasma): > 120 min
Compound Remaining (Plasma stability assay; human plasma, 0 min): 100 % of initial amount
Compound Remaining (Plasma stability assay; human plasma, 15 min): 90.1 % of initial amount
Compound Remaining (Plasma stability assay; human plasma, 30 min): 99.6 % of initial amount
Compound Remaining (Plasma stability assay; human plasma, 60 min): 91.3 % of initial amount
Compound Remaining (Plasma stability assay; human plasma, 120 min): 78.6 % of initial amount
half-life (Plasma stability assay; mouse plasma): > 120 min
Compound Remaining (Plasma stability assay; mouse plasma, 0 min): 100 % of initial amount
Compound Remaining (Plasma stability assay; mouse plasma, 15 min): 100 % of initial amount
Compound Remaining (Plasma stability assay; mouse plasma, 30 min): 101 % of initial amount
Compound Remaining (Plasma stability assay; mouse plasma, 60 min): 85.8 % of initial amount
Compound Remaining (Plasma stability assay; mouse plasma, 120 min): 91.7 % of initial amount
half-life (Plasma stability assay; rat plasma): > 120 min
Compound Remaining (Plasma stability assay; rat plasma, 0 min): 100 % of initial amount
Compound Remaining (Plasma stability assay; rat plasma, 15 min): 95.2 % of initial amount
Compound Remaining (Plasma stability assay; rat plasma, 30 min): 92.9 % of initial amount
Compound Remaining (Plasma stability assay; rat plasma, 60 min): 80.2 % of initial amount
Compound Remaining (Plasma stability assay; rat plasma, 120 min): 55.9 % of initial amount
% Compared to Parent Compound, 0 min ([2]; 0 min): 100%
% Compared to Parent Compound, 60 min ([2]; 60 min): 47%
IC50 (ERBB4/HER4): 17.5 nM
IC50 (TEC): 50.2 nM
Cmax (Pharmacokinetics in mice; iv, 5 mg/kg): 3520 ng/mL
Tmax (Pharmacokinetics in mice; iv, 5 mg/kg): 4.8 min
clearance (Pharmacokinetics in mice; iv, 5 mg/kg): 67 mL/min/kg
half-life (Pharmacokinetics in mice; iv, 5 mg/kg): 90 min
AUC(0-t) (Pharmacokinetics in mice; iv, 5 mg/kg, i.v., 5 mg/kg, read-out: AUC0-4): 1180 ng·h/mL
AUC(0-t) (Pharmacokinetics in mice; iv, 5 mg/kg, i.v., 5 mg/kg, read-out: AUC0-t): 1230 ng·h/mL
Vd (Pharmacokinetics in mice; iv, 5 mg/kg, read-out: Vss): 2.6 L/kg
Cmax (Pharmacokinetics in mice; [3]): 465 ng/mL
Tmax (Pharmacokinetics in mice; [3]): 15 min
bioavailability (Pharmacokinetics in mice; [3]): 3%
AUC(0-t) (Pharmacokinetics in mice; po, 10 mg/kg, p.o. (HCl salt), 10 mg/kg oral gavage, read-out: AUC0-4): 357 ng·h/mL
Cmax (Pharmacokinetics in mice; [4]): 299 ng/mL
Tmax (Pharmacokinetics in mice; [4]): 30 min
bioavailability (Pharmacokinetics in mice; [4]): 2.3%
AUC(0-t) (Pharmacokinetics in mice; po, 10 mg/kg, p.o. (base form), 10 mg/kg oral gavage, read-out: AUC0-4): 270 ng·h/mL
SMILES: C=CC(=O)Nc1cccc(-c2nc(Nc3cccc(N4CCOCC4)c3)nc3[nH]ncc23)c1 [Compound 3, N-(3-(6-((3-morpholinophenyl)amino)-1H-pyrazolo[3,4-d]pyrimidin-4-yl)phenyl)acrylamide]
IC50 (HERG channel): > 10000 nM
